Laboratory results taken from PubChem BioAssay (NCI).
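Each compound was tested at five concentrations against cells in 96-well plates for 48 hours. TGI: total growth inhibition.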

Assays:
Experiment in all cases: growth of human tumour cells (NCI), 48 h
UACC-62 melanoma = system: UACC-62 melanoma
OVCAR-8 ovarian = system: OVCAR-8 ovarian
HOP-62 NSCLC = system: HOP-62 NSCLC
NCI-H23 lung = system: NCI-H23 lung
HS 578T breast = system: HS 578T breast
SW-620 colon = system: SW-620 colon
HCC-2998 colon = system: HCC-2998 colon
COLO 205 colon = system: COLO 205 colon
PC-3 prostate = system: PC-3 prostate
SR leukemia = system: SR leukemia

SMILES | TGI (UACC-62 melanoma) | TGI (OVCAR-8 ovarian) | TGI (HOP-62 NSCLC) | TGI (NCI-H23 lung) | TGI (HS 578T breast) | TGI (SW-620 colon) | TGI (HCC-2998 colon) | TGI (COLO 205 colon) | TGI (PC-3 prostate) | TGI (SR leukemia)
O=C1C=CC=C/C1=C1\N=C(c2ccccc2OCC(=O)c2ccccc2)SS1 | > 100 µM | > 100 µM | > 100 µM | > 100 µM | > 100 µM | > 100 µM | > 100 µM |  |  | 
COC(=O)C1C(C(=O)OC)C2(OC(c3ccc(Cl)cc3)=CC2=O)C12OC(c1ccc(Cl)cc1)=CC2=O (stereo not given) | 32.8 µM |  |  | 52.2 µM | > 100 µM | > 100 µM | 36.8 µM | 34.6 µM | 55.8 µM | 10.9 µM
O=P(O)(O)c1ccccc1Oc1ccccc1 | > 100 µM | > 100 µM | > 100 µM | > 100 µM | > 100 µM | > 100 µM | > 100 µM | > 100 µM | > 100 µM | 
COc1cccc2c1C(=O)c1c(O)c3c(c(O)c1C2=O)C[C@H](O)C[C@@H]3OC1CC(N)C(O)C(C)O1 (stereo not given in full) | 1.82 µM | 3.64 µM | 10.5 µM | 3.18 µM | 5.97 µM |  |  | 10.3 µM | 12 µM | 0.229 µM
O=C(O)c1cccc2cccc(-c3cccc4cccc(C(=O)O)c34)c12 | > 100 µM | > 100 µM | > 100 µM | > 100 µM | > 100 µM | > 100 µM | > 100 µM | > 100 µM | > 100 µM | 
COc1ccccc1CN=C1Nc2ccncc2S(=O)(=O)N1c1ccccc1 | > 100 µM | > 100 µM |  | > 100 µM | > 100 µM | > 100 µM | > 100 µM | > 100 µM | > 100 µM | > 100 µM
CO[C@H]1SC[C@H](OC(C)=O)[C@H](OC(C)=O)[C@H]1OC(C)=O | > 100 µM | > 100 µM | > 100 µM | > 100 µM | > 100 µM | > 100 µM | > 100 µM | > 100 µM |  | > 100 µM
CC(C)c1cccc(C(C)C)c1NC(=O)/C(CC(=O)CC(c1ccccc1)c1c(O)c2ccccc2oc1=O)=N/O (stereo not given) | > 100 µM | > 100 µM | > 100 µM | > 100 µM | > 100 µM | > 100 µM | > 100 µM | > 100 µM | > 100 µM | 
CCOc1ccc(Nc2nc(N)nc(N)c2N)cc1 | > 100 µM | > 100 µM | 79 µM | > 100 µM | 45.7 µM | > 100 µM |  | 70.2 µM | > 100 µM | 59.3 µM
CCOC(=O)C1(C#N)C(c2ccccc2)CC(O)(c2ccc(Cl)cc2)C(C(=O)c2ccc(Cl)cc2)C1c1ccccc1 (stereo not given) | > 100 µM | > 100 µM | > 100 µM | > 100 µM |  | > 100 µM | > 100 µM | > 100 µM |  | > 100 µM
CN1C(=O)N(C)C(O)C(Cl)(Br)C1=O (stereo not given) | > 100 µM | > 100 µM |  | > 100 µM | > 100 µM | > 100 µM | > 100 µM | > 100 µM | > 100 µM | > 100 µM
CCCCC1=C(C(=O)N2CCOCC2)C2(OCCO2)C1=O | 94.8 µM | 58.3 µM | 54.1 µM | 51.1 µM | > 100 µM | 81.9 µM |  | 40.2 µM | 98.3 µM | > 100 µM
Cc1cc(S(=O)(=O)/N=C(/C(=C=[N-])C#N)[n+]2ccc(N(C)C)cc2)c(SCC(=O)O)cc1Cl | > 100 µM | > 100 µM | > 100 µM | > 100 µM | > 100 µM |  | > 100 µM | > 100 µM | > 100 µM | 
CS(=O)(=O)CSCSSCS(C)(=O)=O | 47 µM | > 100 µM | > 100 µM | > 95.9 µM |  | 34.3 µM | > 100 µM | 38 µM |  | > 91.8 µM
OCCOCn1nncc1Cn1ncc2c(SCc3ccccc3)ncnc21 | > 100 µM | > 100 µM | > 100 µM | > 100 µM | > 100 µM | > 100 µM | > 100 µM | > 100 µM | > 100 µM | 
Cc1cc(C)c(S(=O)(=O)N(CCCN)OCCCON(CCCN)S(=O)(=O)c2c(C)cc(C)cc2C)c(C)c1 | 6.09 µM | 11 µM | 4.02 µM | 4.66 µM | 3.16 µM | 6.45 µM |  | 3.5 µM | 3.45 µM | 7.83 µM
CCOC(=O)c1s/c(=N\Nc2nc3ccccc3cc2C2OCCO2)n(Cc2ccccc2)c1C | > 100 µM | > 100 µM | > 100 µM | > 100 µM |  | > 100 µM |  | > 100 µM |  | > 100 µM
COc1ccc(Nc2nc(N)c(C(=O)c3c[nH]c4ccccc34)s2)cc1 | > 100 µM | > 100 µM | > 71.4 µM | > 95 µM |  | > 100 µM |  | 4.06 µM | > 100 µM | 0.796 µM
CC(C)(C)OC(=O)NC(Cc1ccccc1)NC(=O)NC(=O)OCc1ccccc1 (stereo not given) | > 100 µM | > 100 µM | > 100 µM | > 100 µM | > 100 µM | > 100 µM | > 100 µM |  | > 100 µM | > 100 µM
O=C(CCc1cc(O)cc(O)c1)NCCCNC(=O)CCc1cc(O)cc(O)c1 | > 100 µM | > 100 µM | > 100 µM | > 100 µM |  | > 100 µM | > 100 µM | > 100 µM | > 100 µM | > 100 µM
COC(=O)[C@@H]1CCCCC[C@H]2C(CO)=C(C)C(=O)C12 (stereo not given in full) | > 100 µM | > 100 µM | > 100 µM | > 100 µM |  | > 100 µM | > 100 µM | > 100 µM |  | > 100 µM
O=c1nc2c(c(-c3ccc(Br)cc3)[nH]1)COC/C2=C\c1ccc(Br)cc1 | > 50 µM | > 50 µM | > 50 µM | > 50 µM | > 50 µM | > 50 µM | > 50 µM | > 50 µM | > 50 µM | 
C=C1OC(c2ccccc2NC)=NC12CCCCC2 | > 100 µM | > 100 µM | > 100 µM | > 100 µM | > 100 µM | > 100 µM | > 100 µM | > 100 µM | > 100 µM | 
O=C1C=CC(=O)N1n1c(-c2ccccc2)n[nH]c1=O | > 100 µM | > 100 µM | > 100 µM | > 100 µM | > 100 µM |  | > 100 µM | > 100 µM | > 100 µM | > 100 µM
